PMC3479967 (Evidence-based Complementary and Alternative Medicine : eCAM, 2012)

Target: T1, UGT1A6 (Homo sapiens, UniProt P19224)
T1 sequence (P19224 27-532): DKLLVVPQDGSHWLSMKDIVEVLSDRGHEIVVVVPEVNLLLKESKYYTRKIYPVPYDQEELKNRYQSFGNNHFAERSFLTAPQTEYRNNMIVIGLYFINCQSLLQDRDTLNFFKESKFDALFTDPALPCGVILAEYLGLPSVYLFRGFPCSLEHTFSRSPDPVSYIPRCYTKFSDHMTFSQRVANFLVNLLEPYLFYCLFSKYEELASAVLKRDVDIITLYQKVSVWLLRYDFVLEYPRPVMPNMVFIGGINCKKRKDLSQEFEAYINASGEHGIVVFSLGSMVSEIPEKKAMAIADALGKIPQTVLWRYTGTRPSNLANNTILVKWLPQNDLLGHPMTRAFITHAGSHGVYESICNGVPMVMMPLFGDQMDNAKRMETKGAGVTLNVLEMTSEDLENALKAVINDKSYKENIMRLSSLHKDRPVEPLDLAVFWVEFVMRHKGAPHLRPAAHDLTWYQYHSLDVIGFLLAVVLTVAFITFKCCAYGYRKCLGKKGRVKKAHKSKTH
Experiment: Inhibition of recombinant UGT1A6 activity (4-MU glucuronidation)
Procedure: A panel of recombinant human UGT supersomes (UGT1A1, UGT1A3, UGT1A4, UGT1A6, UGT1A7, UGT1A8, UGT1A9, UGT1A10, UGT2B4, UGT2B7, UGT2B15, and UGT2B17) expressed in baculovirus-infected insect cells were purchased from BD Gentest Corp. (Woburn, MA, USA).
4-MU, a nonselective substrate of UGTs, was used as probe substrate for all UGTs except UGT1A4. Incubations with each individual enzyme were conducted using conditions previously described. There was a 5 min preincubation step at 37°C before the reaction was started by addition of UDPGA. The incubation mixtures were then centrifuged at 20,500 ×g for 15 min to obtain the supernatant. Aliquots (20 μL) were then analyzed by HPLC. The HPLC system (SHIMADZU, Kyoto, Japan) consisted of an SCL-10A system controller, two LC-10AT pumps, a SIL-10A auto injector, and a SPD-10AVP UV detector. Chromatographic separation was achieved using a Kromasil ODS column (4.6 × 150 mm I.D., 5 μm particle size) at a flow rate of 1 mL/min and UV detection at 316 nm. The mobile phase consisted of 10 mM KH2PO4, pH 2.7 (A) and acetonitrile (B). The following gradient was applied at a flow rate of 1 mL/min: 0–4 min 80% A and 20% B, 4.1–8 min 50% A and 50% B, 8.1–12 min, 30% A and 70% B. All experiments were performed in two independent experiments in duplicate.
A typical incubation mixture contained recombinant human UGTs, 5 mM MgCl2, 5 mM UDPGA, 50 μg/mg protein alamethicin, 50 mM Tris-HCl buffer (pH 7.4), and various probe substrates of UGTs in the absence or presence of different concentrations of inhibitors. […] The final concentration of DMSO in the incubation system was 1% (v/v). […]
Inhibition data from experiments were graphically represented by Dixon plots. K i values were calculated by nonlinear regression using the equations for competitive inhibition (1), noncompetitive inhibition (2), or mixed inhibition (3), [22] […] The type of inhibition was determined from the enzyme inhibition models. Goodness of fit to kinetic and inhibition models was assessed from the F statistic, r ^2 values, parameter standard error estimates, and 95% confidence intervals. […]

COc1ccc(-c2oc3c(CC=C(C)C)c(O[C@@H]4O[C@H](CO)[C@@H](O)[C@H](O)[C@H]4O)cc(O)c3c(=O)c2O[C@@H]2O[C@@H](C)[C@H](O)[C@@H](O)[C@H]2O)cc1 [Icariin] was tested, and the IC50 was over 100 µM.

Molecule COc1ccc(-c2oc3c(CC=C(C)C)c(O)cc(O)c3c(=O)c2O)cc1 [Icaritin] has an IC50 of over 100 µM.

COc1ccc(-c2oc3c(CC=C(C)C)c(O[C@@H]4O[C@H](CO)[C@@H](O)[C@H](O)[C@H]4O)cc(O)c3c(=O)c2O)cc1 [Icariside I] was tested, and the IC50 was over 100 µM.
